Data: publication PMC6968643, “Synthesis and biological evaluation of novel (E)-N'-benzylidene hydrazides as novel c-Met inhibitors through fragment based virtual screening” (Journal of Enzyme Inhibition and Medicinal Chemistry, 2020)

How the values were obtained:
recombinant c-Met kinase = recombinant c-Met kinase (Homo sapiens, UniProt P08581); experiment: Cell-free detection of c-Met kinase activity (ADP-Glo assay)
Protocol: The capacity of the novel compounds for inhibiting c-Met activity was evaluated using a cell-free assay.

VEGFR-2 = VEGFR-2 (Homo sapiens, UniProt P35968); experiment: Kinase activity against VEGFR-2; format: biochemical; conditions: for IC50: Table 3, inhibitory activity (IC50) against VEGFR-2, – = no inhibitory effect
Text: It was consistent with the QSAR predicted results. […] Both of the proteins belong to the family of tyrosine kinase, which catalyse the phosphorylation of tyrosine. […] While subtle differences may make small molecules show different activities against the two kinases. So we superimposed the two kinases in three dimensions to explore the reason.

Sequence of VEGFR-2 (P35968 20-1356): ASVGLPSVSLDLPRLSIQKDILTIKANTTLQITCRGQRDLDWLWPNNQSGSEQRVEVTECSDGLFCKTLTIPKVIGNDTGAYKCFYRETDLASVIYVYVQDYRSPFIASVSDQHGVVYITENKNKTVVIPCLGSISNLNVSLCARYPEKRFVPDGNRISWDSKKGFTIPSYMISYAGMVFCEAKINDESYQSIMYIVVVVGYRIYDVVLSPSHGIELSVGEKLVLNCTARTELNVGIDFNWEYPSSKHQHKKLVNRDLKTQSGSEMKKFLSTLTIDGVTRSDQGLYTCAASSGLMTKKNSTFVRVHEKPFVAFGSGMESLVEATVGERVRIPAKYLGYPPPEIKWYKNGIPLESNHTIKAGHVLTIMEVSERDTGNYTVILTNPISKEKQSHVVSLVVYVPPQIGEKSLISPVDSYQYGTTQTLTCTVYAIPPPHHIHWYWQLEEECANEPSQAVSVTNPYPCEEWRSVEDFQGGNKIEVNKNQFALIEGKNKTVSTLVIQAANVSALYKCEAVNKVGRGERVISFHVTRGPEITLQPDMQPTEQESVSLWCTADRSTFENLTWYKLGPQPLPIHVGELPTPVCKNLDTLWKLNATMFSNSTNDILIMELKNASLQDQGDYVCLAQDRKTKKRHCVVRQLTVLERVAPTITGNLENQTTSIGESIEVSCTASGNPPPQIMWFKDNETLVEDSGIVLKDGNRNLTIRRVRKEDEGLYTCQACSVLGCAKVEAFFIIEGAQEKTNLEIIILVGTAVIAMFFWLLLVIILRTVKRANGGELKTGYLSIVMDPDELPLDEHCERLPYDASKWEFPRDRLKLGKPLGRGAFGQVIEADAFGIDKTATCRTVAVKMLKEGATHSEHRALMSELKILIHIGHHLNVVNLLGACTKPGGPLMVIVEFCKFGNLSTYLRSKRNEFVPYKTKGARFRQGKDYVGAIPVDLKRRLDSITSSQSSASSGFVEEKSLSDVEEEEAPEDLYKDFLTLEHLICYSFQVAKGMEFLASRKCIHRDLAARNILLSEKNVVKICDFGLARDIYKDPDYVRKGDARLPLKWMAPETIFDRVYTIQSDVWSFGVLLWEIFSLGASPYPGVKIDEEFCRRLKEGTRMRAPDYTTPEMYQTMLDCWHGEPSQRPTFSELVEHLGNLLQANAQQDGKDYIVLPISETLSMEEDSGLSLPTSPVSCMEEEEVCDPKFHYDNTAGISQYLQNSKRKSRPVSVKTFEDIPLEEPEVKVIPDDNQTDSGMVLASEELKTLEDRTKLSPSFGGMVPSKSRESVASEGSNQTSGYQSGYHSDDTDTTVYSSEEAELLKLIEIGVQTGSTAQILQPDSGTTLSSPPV
Sequence of recombinant c-Met kinase (P08581 25-1390): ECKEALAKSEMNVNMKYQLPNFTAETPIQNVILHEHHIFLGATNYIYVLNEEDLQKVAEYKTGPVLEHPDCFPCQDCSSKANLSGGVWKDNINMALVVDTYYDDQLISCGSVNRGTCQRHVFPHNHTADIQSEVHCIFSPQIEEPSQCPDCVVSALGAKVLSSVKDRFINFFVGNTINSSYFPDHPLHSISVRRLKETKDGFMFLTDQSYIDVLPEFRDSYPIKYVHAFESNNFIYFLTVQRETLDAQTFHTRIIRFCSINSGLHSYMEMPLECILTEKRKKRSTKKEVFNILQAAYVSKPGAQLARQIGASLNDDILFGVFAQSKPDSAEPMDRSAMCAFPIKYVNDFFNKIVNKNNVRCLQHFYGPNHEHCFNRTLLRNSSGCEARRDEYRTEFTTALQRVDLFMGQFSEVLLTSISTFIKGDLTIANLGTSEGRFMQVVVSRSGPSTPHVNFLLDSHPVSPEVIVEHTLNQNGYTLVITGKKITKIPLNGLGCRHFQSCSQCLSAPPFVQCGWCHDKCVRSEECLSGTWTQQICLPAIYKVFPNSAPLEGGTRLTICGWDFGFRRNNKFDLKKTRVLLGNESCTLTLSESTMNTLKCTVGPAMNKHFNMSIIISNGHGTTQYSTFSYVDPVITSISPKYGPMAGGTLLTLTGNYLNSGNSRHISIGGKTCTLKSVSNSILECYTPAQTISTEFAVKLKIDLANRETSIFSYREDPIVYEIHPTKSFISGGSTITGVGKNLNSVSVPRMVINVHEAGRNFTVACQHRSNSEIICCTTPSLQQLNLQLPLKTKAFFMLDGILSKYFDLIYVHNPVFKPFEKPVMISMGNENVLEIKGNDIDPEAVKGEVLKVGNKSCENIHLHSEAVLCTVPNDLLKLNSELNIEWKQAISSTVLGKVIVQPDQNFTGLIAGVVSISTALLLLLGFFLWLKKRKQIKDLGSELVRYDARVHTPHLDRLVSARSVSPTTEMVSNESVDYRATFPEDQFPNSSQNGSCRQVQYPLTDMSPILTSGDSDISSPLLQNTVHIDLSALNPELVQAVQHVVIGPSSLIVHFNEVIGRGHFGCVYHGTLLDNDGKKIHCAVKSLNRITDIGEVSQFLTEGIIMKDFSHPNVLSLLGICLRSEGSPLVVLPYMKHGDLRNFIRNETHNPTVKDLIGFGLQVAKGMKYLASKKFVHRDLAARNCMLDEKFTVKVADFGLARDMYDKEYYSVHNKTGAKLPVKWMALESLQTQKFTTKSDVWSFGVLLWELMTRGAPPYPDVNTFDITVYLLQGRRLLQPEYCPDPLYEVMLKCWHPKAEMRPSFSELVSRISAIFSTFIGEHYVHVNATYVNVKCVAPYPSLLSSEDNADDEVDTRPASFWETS

SMILES	IC50 (recombinant c-Met kinase) [µM]	melting point [°C]	activity against VEGFR-2 (in words) (VEGFR-2)	IC50 (VEGFR-2) [µM]
CC(=O)Nc1cccc(-c2cn(CC(=O)N/N=C/c3ccc(O)cc3)nn2)c1 [Compound 10c, (E)-2-(4-(3-acetamidophenyl)-1H-1,2,3-triazol-1-yl)-N'-(4-hydroxybenzylidene) acetohydrazide]	11.2	260 to 260.8		
CC(=O)Nc1cccc(-c2cn(CC(=O)N/N=C/c3cccc(Cl)c3)nn2)c1 [Compound 10b, (E)-2-(4-(3-acetamidophenyl)-1H-1,2,3-triazol-1-yl)-N'-(3-chlorobenzylidene)]	0.00037	255.8 to 256.3	no activity	> 12
CC(=O)Nc1cccc(-c2cn(CC(=O)N/N=C/c3cc(Br)ccc3O)nn2)c1 [Compound 10h, (E)-2-(4-(3-acetamidophenyl)-1H-1,2,3-triazol-1-yl)-N'-(5-bromo-2-hydroxybenzylidene) acetohydrazide]	> 12	228.9 to 229.3		
CC(=O)Nc1cccc(-c2cn(CC(=O)N/N=C/c3cc(Br)cc(Br)c3O)nn2)c1 [Compound 10g, (E)-2-(4-(3-acetamidophenyl)-1H-1,2,3-triazol-1-yl)-N'-(3,5-dibromo-2-hydroxybenzylidene)acetohydrazide]	8.93	237 to 237.5		
CC(=O)Nc1cccc(-c2cn(CC(=O)N/N=C/c3ccc(Cl)cc3)nn2)c1 [Compound 10a, (E)-2-(4-(3-acetamidophenyl)-1H-1,2,3-triazol-1-yl)-N'-(4-chlorobenzylidene)]	0.0017	234.6 to 234.9		
COc1ccc(/C=N/NC(=O)Cn2cc(-c3cccc(NC(C)=O)c3)nn2)cc1OC [Compound 10j, (E)-2-(4-(3-acetamidophenyl)-1H-1,2,3-triazol-1-yl)-N'-(3,4-dimethoxybenzylidene) acetohydrazide]	0.00542	230 to 230.6		
COc1ccc(/C=N/NC(=O)Cn2cc(-c3cccc(NC(C)=O)c3)nn2)c(OC)c1 [Compound 10i, (E)-2-(4-(3-acetamidophenyl)-1H-1,2,3-triazol-1-yl)-N'-(2,4-dimethoxybenzylidene) acetohydrazide]	0.00173	210.9 to 211.3		
COc1cc(/C=N/NC(=O)Cn2cc(-c3cccc(NC(C)=O)c3)nn2)cc(OC)c1OC [Compound 10k, (E)-2-(4-(3-acetamidophenyl)-1H-1,2,3-triazol-1-yl)-N'-(3,4,5-trimethoxybenzylidene) acetohydrazide]	0.0915	210.2 to 212.9		
CC(=O)Nc1cccc(-c2cn(CC(=O)N/N=C/c3ccccc3[N+](=O)[O-])nn2)c1 [Compound 10e, (E)-2-(4-(3-acetamidophenyl)-1H-1,2,3-triazol-1-yl)-N'-(2-nitrobenzylidene)acetohydrazide]	5.86	233.2 to 233.8		
CC(=O)Nc1cccc(-c2cn(CC(=O)N/N=C/c3cc(Cl)ccc3O)nn2)c1 [Compound 10f, (E)-2-(4-(3-acetamidophenyl)-1H-1,2,3-triazol-1-yl)-N'-(5-chloro-2-hydroxybenzylidene) acetohydrazide]	0.00119	234.6 to 234.9		0.139
CC(=O)Nc1cccc(-c2cn(CC(=O)N/N=C/c3ccccc3O)nn2)c1 [Compound 10d, (E)-2-(4-(3-acetamidophenyl)-1H-1,2,3-triazol-1-yl)-N'-(2-hydroxybenzylidene) acetohydrazide]	0.266	253.8 to 254.2		

Second part, the compound after the results:

IC50 (recombinant c-Met kinase) [µM]	melting point [°C]	activity against VEGFR-2 (in words) (VEGFR-2)	IC50 (VEGFR-2) [µM]	SMILES
> 12	239 to 239.6			O=C(Cn1cc(-c2ccccc2)nn1)N/N=C/c1ccccc1O [Compound 11d, (E)-N'-(2-hydroxybenzylidene)-2-(4-phenyl-1H-1,2,3-triazol-1-yl)acetohydrazide]
> 12	233.5 to 233.8			COc1cc(/C=N/NC(=O)Cn2cc(-c3ccccc3)nn2)cc(OC)c1OC [Compound 11k, (E)-2-(4-phenyl-1H-1,2,3-triazol-1-yl)-N'-(3,4,5-trimethoxybenzylidene)acetohydrazide]
5.68	234 to 234.5			O=C(Cn1cc(-c2ccccc2)nn1)N/N=C/c1ccc(O)cc1 [Compound 11c, (E)-N'-(4-hydroxybenzylidene)-2-(4-phenyl-1H-1,2,3-triazol-1-yl)acetohydrazide]
0.00341	259 to 259.8		0.0253	O=C(Cn1cc(-c2ccccc2)nn1)N/N=C/c1cccc(Cl)c1 [Compound 11b, (E)-N'-(3-chlorobenzylidene)-2-(4-phenyl-1H-1,2,3-triazol-1-yl)acetohydrazide]
> 12	259 to 259.6			O=C(Cn1cc(-c2ccccc2)nn1)N/N=C/c1ccc(Cl)cc1 [Compound 11a, (E)-N'-(4-chlorobenzylidene)-2-(4-phenyl-1H-1,2,3-triazol-1-yl)acetohydrazide]
> 12	230 to 230.4		0.849	COc1ccc(/C=N/NC(=O)Cn2cc(-c3ccccc3)nn2)c(OC)c1 [Compound 11i, (E)-N'-(2,4-dimethoxybenzylidene)-2-(4-phenyl-1H-1,2,3-triazol-1-yl)acetohydrazide]
3.08	232.1 to 232.5			COc1ccc(/C=N/NC(=O)Cn2cc(-c3ccccc3)nn2)cc1OC [Compound 11j, (E)-N'-(3,4-dimethoxybenzylidene)-2-(4-phenyl-1H-1,2,3-triazol-1-yl)acetohydrazide]
> 12	231 to 231.5			O=C(Cn1cc(-c2ccccc2)nn1)N/N=C/c1cc(Br)cc(Br)c1O [Compound 11g, (E)-N'-(3,5-dibromo-2-hydroxybenzylidene)-2-(4-phenyl-1H-1,2,3-triazol-1-yl) acetohydrazide]
4.28	225.2 to 225.6			O=C(Cn1cc(-c2ccccc2)nn1)N/N=C/c1ccccc1[N+](=O)[O-] [Compound 11e, (E)-N'-(2-nitrobenzylidene)-2-(4-phenyl-1H-1,2,3-triazol-1-yl)acetohydrazide]
> 12	240 to 240.6		9.86	O=C(Cn1cc(-c2ccccc2)nn1)N/N=C/c1cc(Cl)ccc1O [Compound 11f, (E)-N'-(5-chloro-2-hydroxybenzylidene)-2-(4-phenyl-1H-1,2,3-triazol-1-yl)acetohydrazide]
0.0119	233 to 233.5			O=C(Cn1cc(-c2ccccc2)nn1)N/N=C/c1cc(Br)ccc1O [Compound 11h, (E)-N'-(5-bromo-2-hydroxybenzylidene)-2-(4-phenyl-1H-1,2,3-triazol-1-yl)acetohydrazide]
